Legend:
Thrombusbildung = test: Stenosis-induced spontaneous coronary thrombus formation in anaesthetised dogs (shake loose, Folts); assay type: in vivo, Hunde; details: for antithrombotische Wirkung: 1 mg/kg; for Verminderung der Häufigkeit der Spontanverschlüsse: 1 mg/kg i.v.
[1] = Acute toxicity in mice (LD50, 14 days observation); set-up: species or system Mäusen; details: mouse, in vivo, observation 14 days
From the text: Die akute Toxizität der zu untersuchenden Substanzen wurde an Mäusen (Beobachtungszeit: 14 Tage) nach oraler bzw. intravenöser Gabe bestimmt. Es wurde die LD₅₀ aus dem Prozentsatz der Tiere berechnet, die nach verschiedenen Dosen innerhalb der Beobachtungszeit verstarben: […]

With CC(C)NCC(O)COc1cccc2ccccc12 (stereo not drawn) [Propranolol, reference compound] as the compound, how does the “antithrombotische Wirkung” value (Thrombusbildung) read?
Its value is “nicht antithrombotisch”.

For CC(C)NCC(O)COc1ccc(CC(N)=O)cc1 (stereo not drawn) [Atenolol, reference compound], which “antithrombotische Wirkung” value (Thrombusbildung) is on record?
Its value is “nicht antithrombotisch”.

Which results are given for COc1ccc2nc(-c3ccc(OCC(O)CNC(C)(C)C)cc3)n(C)c(=O)c2c1 (stereo not drawn) [Verbindung B, 2-[4-(2-Hydroxy-3-tert.butylamino-propoxy)-phenyl]-3-methyl-6-methoxy-3,4-dihydro-chinazolin-4-on]?
LD50 at 336 h ([1]; iv): 75 mg/kg; LD50 at 336 h ([1]; po): 750 mg/kg

Which results are given for COc1ccc2nc(-c3ccc(OCC(O)CNC(C)(C)C)cc3)n(C)c(=O)c2c1 (single isomer, unassigned; (-)) [Verbindung C, (-)-2-2[4-(2-Hydroxy-3-tert.butylamino-propoxy)-phenyl]-3-methyl-6-methoxy-3,4-dihydro-chinazolin-4-on]?
Verminderung der Häufigkeit der Spontanverschlüsse (Thrombusbildung; 30th to 60th minute after substance): 73%; Verminderung der Häufigkeit der Spontanverschlüsse (Thrombusbildung; first 30 min after substance): 55%

Reference: patent publication EP0210342A2, “Medicament containing pyridinones having an antithrombotic activity” (Dr. Karl Thomae GmbH, priority 1985, dated 1987)
